Measurements from ChEMBL document CHEMBL1201862, “PubChem BioAssay data set” (2004).
The source made the active and inactive calls.

Experiments:
[1] = biological target: T1, Probable nicotinate-nucleotide adenylyltransferase (Staphylococcus aureus (strain N315), UniProt P65502); type: functional, Staphylococcus aureus subsp. aureus N315;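 as to IC50 Mean: confirmatory dose-response retesting of NadD inhibitor hits first found in an ultra-high-throughput screen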
[2] = biological target: T1, Probable nicotinate-nucleotide adenylyltransferase; type: functional, Staphylococcus aureus subsp. aureus N315; details: read-out: IC50_Mean
Kallikrein-7 = Kallikrein-7 (Homo sapiens, UniProt P49862); experiment: Fluorescence Intensity-based biochemical primary high throughput dose response assay to identify activators of kallikrein-7 (K7) zymogen.
Sequence of Kallikrein-7 (P49862 whole entry): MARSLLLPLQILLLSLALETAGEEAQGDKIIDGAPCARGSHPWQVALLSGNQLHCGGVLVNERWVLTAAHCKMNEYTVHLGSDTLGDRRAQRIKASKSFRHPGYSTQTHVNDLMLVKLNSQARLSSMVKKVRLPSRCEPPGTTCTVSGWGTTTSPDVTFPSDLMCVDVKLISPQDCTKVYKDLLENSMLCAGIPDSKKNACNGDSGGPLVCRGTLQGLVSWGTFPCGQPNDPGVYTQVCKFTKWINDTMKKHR

Albumin = Albumin (Bos taurus, UniProt P02769); experiment: Counterscreen for inhibitors of T-cell receptor (TCR)-CD3 interaction: Fluorescence-based biochemical high throughput dose response assay to identify inhibitors of T-cell receptor (TCR)-CD3 interaction using a TAMRA-labeled BSA probe.; type: functional
Sequence of Albumin (P02769 whole entry): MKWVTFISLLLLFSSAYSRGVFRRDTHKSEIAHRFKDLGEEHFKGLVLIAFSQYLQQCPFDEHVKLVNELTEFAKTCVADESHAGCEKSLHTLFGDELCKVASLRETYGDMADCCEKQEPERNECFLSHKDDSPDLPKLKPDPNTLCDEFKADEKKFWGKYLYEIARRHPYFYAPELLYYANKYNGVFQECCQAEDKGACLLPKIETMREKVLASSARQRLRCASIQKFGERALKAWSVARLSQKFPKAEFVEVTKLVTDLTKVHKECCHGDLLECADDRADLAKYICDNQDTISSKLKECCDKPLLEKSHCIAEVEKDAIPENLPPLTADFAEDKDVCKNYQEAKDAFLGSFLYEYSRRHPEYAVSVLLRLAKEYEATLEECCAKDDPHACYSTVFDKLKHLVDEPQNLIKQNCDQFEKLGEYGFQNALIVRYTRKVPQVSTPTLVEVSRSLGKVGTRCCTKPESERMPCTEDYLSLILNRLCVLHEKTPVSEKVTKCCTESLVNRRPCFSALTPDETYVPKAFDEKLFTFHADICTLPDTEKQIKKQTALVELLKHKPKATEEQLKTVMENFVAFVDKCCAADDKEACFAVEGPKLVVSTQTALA

[3] = biological target: DNA (cytosine-5)-methyltransferase 1 (Homo sapiens, UniProt P26358); experiment: inhibition of DNA methylation by DNMT1 – biochemical, fluorescent molecular beacon, confirmation (AID 602386); type: functional
Sequence of DNA (cytosine-5)-methyltransferase 1 (P26358 whole entry): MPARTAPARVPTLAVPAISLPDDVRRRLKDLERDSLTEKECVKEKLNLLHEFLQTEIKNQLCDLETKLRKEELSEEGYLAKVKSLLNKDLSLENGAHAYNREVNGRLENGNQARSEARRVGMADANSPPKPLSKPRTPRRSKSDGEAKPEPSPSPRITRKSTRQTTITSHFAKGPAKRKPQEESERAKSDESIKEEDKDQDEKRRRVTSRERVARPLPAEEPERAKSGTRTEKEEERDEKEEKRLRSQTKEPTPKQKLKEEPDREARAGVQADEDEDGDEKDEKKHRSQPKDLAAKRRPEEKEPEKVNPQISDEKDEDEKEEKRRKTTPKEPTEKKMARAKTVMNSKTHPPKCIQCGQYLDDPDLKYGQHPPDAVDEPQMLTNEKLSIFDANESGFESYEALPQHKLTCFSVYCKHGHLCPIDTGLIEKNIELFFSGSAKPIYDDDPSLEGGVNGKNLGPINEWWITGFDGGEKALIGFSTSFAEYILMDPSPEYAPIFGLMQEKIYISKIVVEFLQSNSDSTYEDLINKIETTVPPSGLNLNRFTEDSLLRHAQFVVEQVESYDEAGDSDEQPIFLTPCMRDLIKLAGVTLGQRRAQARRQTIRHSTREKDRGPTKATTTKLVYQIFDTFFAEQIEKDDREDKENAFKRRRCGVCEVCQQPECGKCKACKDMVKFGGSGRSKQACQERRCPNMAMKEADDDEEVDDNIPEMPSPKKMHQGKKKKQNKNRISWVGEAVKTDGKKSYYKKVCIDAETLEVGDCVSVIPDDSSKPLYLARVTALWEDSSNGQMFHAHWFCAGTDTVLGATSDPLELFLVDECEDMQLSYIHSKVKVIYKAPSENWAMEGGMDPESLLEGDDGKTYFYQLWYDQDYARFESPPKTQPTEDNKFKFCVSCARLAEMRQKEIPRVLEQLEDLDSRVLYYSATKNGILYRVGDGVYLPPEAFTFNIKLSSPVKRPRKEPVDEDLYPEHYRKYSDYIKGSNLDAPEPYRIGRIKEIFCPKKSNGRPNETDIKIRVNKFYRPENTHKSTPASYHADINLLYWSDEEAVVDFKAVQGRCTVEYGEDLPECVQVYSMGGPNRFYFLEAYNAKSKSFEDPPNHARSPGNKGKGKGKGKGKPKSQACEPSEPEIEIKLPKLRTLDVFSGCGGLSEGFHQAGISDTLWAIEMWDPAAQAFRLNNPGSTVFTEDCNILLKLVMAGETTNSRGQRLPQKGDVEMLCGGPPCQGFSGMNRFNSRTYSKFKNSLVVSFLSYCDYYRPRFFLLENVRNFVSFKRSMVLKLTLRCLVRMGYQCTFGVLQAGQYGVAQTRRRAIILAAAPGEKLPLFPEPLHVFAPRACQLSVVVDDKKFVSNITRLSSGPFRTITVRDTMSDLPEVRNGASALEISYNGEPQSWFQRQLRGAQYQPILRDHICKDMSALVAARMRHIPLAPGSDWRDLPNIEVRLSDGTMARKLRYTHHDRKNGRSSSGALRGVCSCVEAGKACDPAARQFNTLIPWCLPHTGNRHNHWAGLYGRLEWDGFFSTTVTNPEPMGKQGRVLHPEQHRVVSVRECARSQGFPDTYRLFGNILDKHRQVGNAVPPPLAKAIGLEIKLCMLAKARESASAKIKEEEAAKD

Beta-galactosidase = Beta-galactosidase (Escherichia coli, UniProt Q8VNN2); experiment: detection-enzyme interference by beta-gal modulators – biochemical, E. coli enzyme, set 3, artefact control for CCR6 antagonist project, dose response (AID 504712); type: functional
[4] = Fluorescence-based cell-based high throughput dose response assay for inhibitors of the interaction of nucleotide-binding oligomerization domain containing 2 (NOD2) and the receptor-interacting serine-threonine kinase 2 (RIPK2).; type: functional; details: Homo sapiens
HEK293 [5] = experiment: cells; details: Homo sapiens
[6] = non-specific 3'UTR reporter inhibition in Clone20-Shn3RL – cell-based, Renilla luciferase, cherry-picked, counter-screen for Shn3 inhibitor project, dose response (AID 624133); type: functional
Beta Lactamase = Beta Lactamase (Pseudomonas aeruginosa, UniProt Q932Y6); experiment: BLA reporter interference, concentration series – BLA reporter cells, FRET fluorescence, artefact control for NOD2-RIPK2 interaction inhibitor project, dose response (AID 651552); type: functional, cell-based
Sequence of Beta Lactamase (Q932Y6 whole entry): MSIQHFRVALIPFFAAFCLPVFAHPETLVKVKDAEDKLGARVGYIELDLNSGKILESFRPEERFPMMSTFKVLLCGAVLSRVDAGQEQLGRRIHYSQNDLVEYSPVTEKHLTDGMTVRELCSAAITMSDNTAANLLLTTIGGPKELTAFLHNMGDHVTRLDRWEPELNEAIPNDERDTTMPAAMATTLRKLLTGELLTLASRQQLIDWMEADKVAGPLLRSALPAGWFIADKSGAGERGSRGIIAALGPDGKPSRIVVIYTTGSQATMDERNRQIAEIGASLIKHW

[7] = general cell-killing toxicity readout – plate reader, dry powder samples, cytotoxicity control for PAX8 inhibitor project, dose response (AID 743021); type: functional, cell-based
Paired box protein Pax-8 = Paired box protein Pax-8 (Homo sapiens, UniProt Q06710); experiment: PAX8 transcriptional activity inhibition in RMG-I – RMG-I cells, luciferase, cherry-pick, dose response (AID 687027); type: functional, cell-based;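 also: luciferase reporter driven by Pax8 target thyroperoxidase promoter measured by SteadyGlo luminescence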
[8] = loss of viability in HepG2 cells – cell-based, CellTiter-Glo, cherry-picked, cytotoxicity control for Shn3 inhibitor project, dose response (AID 624134); type: functional
HEK293 [9] = experiment: cells; details: Homo sapiens; remark: listed apart in the source
[10] = reduction of Shn3 3'UTR-driven luciferase in osteoblasts – cell-based, Clone20 osteoblasts, firefly luciferase, cherry-picked, dose response (AID 624132); type: functional;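 also: firefly luciferase luminescence from reporter carrying the Shn3 3'UTR in osteoblasts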
[11] = Counterscreen for activators of the function of SWI/SNF related, matrix associated, actin dependent regulator of chromatin, subfamily a, member 2 (SMARCA2, BRM): Luminescence-based cell-based high throughput dose response assay to identify non-selective compounds using the VP16 reporter assay.; type: functional
[12] = acridine orange displacement from DNA – biochemical, fluorescence polarization, cherry-pick, artefact control for RAD54 inhibitor project, dose response (AID 651673); type: functional
H4 = experiment: Luminescence Cell-Based Dose Response HTS to Identify Activators of 5'UTR Stem-Loop Driven Prion Protein mRNA Translation in H4 Neuroglioblastoma Cells. [Related pubchem assays: 1829 (Project Summary), 1814 (Primary HTS)]; type: functional; details: Homo sapiens
[13] = biological target: T2, DNA repair and recombination protein RAD54-like (Homo sapiens, UniProt Q92698); experiment: RAD54 Holliday junction migration blockers – biochemical, fluorescence, cherry-picked samples, dose series, confirmation (AID 651657); type: functional
T2 sequence (Q92698 whole entry): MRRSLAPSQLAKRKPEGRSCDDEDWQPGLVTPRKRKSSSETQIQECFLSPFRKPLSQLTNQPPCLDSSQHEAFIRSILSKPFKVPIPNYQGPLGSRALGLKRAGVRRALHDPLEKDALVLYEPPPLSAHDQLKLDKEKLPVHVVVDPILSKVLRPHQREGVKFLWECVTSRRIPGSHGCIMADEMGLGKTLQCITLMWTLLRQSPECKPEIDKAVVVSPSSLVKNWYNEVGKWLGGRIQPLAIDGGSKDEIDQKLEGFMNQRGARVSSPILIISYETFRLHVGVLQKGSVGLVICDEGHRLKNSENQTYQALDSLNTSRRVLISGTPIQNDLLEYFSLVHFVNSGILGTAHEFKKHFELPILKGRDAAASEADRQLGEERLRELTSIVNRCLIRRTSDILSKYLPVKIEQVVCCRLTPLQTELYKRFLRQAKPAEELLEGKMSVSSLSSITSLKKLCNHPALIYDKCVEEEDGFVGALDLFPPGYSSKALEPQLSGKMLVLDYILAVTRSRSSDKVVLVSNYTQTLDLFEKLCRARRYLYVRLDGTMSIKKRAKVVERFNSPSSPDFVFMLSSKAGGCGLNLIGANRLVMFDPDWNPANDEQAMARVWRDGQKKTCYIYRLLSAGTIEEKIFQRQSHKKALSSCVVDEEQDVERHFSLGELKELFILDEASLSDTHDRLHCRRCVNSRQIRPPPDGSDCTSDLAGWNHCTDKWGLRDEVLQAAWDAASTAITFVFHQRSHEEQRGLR

[14] = biological target: SWI/SNF-related matrix-associated actin-dependent regulator of chromatin subfamily A member 2 (Homo sapiens, UniProt P51531); experiment: Luminescence-based cell-based high throughput dose response assay to identify activators of the function of SWI/SNF related, matrix associated, actin dependent regulator of chromatin, subfamily a, member 2 (SMARCA2, BRM).; type: functional
Sequence of SWI/SNF-related matrix-associated actin-dependent regulator of chromatin subfamily A member 2 (P51531 whole entry): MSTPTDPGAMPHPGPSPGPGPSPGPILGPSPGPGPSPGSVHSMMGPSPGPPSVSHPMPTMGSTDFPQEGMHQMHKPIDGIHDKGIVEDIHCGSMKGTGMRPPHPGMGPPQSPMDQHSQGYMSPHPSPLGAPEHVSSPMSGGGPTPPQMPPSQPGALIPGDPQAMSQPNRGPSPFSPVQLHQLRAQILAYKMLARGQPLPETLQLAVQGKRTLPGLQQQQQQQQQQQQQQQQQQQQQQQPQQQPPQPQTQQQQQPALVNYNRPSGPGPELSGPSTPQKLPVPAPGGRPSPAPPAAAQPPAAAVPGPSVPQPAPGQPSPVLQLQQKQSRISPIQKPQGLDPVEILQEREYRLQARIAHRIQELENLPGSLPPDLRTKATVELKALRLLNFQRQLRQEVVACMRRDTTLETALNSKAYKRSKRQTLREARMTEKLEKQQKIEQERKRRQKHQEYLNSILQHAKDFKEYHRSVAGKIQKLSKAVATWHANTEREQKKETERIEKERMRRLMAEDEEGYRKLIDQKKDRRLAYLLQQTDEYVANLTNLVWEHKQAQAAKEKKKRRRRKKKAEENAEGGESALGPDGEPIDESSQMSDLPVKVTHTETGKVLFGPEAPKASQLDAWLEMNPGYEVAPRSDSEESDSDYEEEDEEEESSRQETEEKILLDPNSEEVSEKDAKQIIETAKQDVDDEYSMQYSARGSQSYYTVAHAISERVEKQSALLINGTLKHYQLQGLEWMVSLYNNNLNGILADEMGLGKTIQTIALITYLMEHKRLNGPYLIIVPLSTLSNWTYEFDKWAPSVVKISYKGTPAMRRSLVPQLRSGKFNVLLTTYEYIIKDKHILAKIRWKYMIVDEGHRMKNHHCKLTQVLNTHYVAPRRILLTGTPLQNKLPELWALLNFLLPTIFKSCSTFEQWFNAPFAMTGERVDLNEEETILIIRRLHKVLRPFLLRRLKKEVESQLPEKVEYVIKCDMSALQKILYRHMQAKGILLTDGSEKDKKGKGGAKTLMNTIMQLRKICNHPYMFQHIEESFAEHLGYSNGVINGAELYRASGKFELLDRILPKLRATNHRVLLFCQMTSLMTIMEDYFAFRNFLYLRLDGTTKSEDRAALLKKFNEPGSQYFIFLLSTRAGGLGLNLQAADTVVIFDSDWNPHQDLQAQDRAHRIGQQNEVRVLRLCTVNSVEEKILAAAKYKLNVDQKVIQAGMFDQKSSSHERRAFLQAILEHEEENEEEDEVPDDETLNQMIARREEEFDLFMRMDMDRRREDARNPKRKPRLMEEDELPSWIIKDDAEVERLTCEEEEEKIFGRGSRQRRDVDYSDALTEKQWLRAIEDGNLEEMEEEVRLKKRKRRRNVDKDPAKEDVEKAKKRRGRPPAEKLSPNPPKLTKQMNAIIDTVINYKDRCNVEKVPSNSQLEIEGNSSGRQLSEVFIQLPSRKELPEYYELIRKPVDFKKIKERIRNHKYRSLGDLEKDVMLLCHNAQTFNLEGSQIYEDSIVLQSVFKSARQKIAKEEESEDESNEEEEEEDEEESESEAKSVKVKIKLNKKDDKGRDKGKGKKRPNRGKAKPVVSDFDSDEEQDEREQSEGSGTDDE

[15] = Luminescence Cell-Based Dose Response HTS to Identify Activators of Luciferase Translation or Activity in H4 […] Cells. [Related pubchem assays: 1829 (Project Summary), 1814 (Primary HTS)]; type: functional
[16] = Luminescence Cell-Based Dose Confirmation HTS to Identify Activators of 5'UTR Stem-Loop Driven Alpha-Synuclein mRNA Translation in H4 Neuroglioblastoma Cells. [Related pubchem assays: 1829 (Project Summary), 1814 (Primary HTS)]; type: functional
[17] = biological target: T3, DNA repair protein RAD52 homolog (Homo sapiens, UniProt P43351); type: functional, biochemical
T3 sequence (P43351 whole entry): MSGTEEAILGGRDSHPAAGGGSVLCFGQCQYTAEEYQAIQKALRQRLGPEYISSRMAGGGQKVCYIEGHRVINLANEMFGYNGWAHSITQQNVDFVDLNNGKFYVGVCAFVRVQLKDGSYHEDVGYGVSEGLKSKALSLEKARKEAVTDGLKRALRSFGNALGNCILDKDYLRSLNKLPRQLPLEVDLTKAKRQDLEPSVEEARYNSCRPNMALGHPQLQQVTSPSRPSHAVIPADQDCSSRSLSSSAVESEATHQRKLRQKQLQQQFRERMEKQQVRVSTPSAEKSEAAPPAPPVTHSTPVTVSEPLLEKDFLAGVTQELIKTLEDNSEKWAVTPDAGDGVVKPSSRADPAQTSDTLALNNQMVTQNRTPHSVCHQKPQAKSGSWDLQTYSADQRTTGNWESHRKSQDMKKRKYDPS

[18] = biological target: Heat shock protein HSP 90-alpha (Homo sapiens, UniProt P07900); type: functional, organism-based
[19] = biological target: Hepatocyte nuclear factor 4-alpha (Homo sapiens, UniProt P41235); type: functional, cell-based;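 also: biochemical luminescence-based dose-response counterscreen measuring inhibition of HNF4 dimerization, run alongside a screen for blockers of ABHD5–perilipin-5 interaction; split luciferase complementation of HNF4 fusion proteins in cell lysate measuring dimerization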
Sequence of Hepatocyte nuclear factor 4-alpha (P41235 whole entry, the tested form may be a part): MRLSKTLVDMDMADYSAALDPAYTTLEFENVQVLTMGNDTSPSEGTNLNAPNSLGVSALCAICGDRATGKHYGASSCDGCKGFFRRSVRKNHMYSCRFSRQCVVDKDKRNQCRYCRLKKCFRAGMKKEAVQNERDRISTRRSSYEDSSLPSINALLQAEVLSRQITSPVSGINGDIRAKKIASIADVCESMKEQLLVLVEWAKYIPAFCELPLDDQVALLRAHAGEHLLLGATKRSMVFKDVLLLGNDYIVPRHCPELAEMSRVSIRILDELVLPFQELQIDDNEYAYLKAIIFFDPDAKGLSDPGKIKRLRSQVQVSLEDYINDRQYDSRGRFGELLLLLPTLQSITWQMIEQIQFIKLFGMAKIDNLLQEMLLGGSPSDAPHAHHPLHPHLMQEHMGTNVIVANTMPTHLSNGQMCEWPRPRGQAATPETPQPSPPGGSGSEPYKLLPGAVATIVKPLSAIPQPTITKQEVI

[20] = Vero cell cytotoxicity, cytotoxicity control for M. tuberculosis inhibitor project, purified and synthesized samples, set 3 (AID 504684); type: functional
[21] = A Cell Based Secondary Assay to Explore Cytotoxicity in HepG2 Cells of Compounds that Modulate Mycobacterium tuberculosis in Media Containing Glycerol versus Media without Glycerol (2).; type: functional
[22] = A Cell Based Secondary Assay to Explore Cytotoxicity in THP-1 Cells of Compounds that Modulate Mycobacterium tuberculosis in Media Containing Glycerol versus Media without Glycerol (2).; type: functional
[23] = biological target: Neurotensin receptor type 1 (Homo sapiens, UniProt P30989); type: functional;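 also: Image-based confirmatory dose-response assay measuring agonist activity at NTR1; NTR1-expressing U2OS osteosarcoma cells imaged for beta-arrestin GFP spot formation; agonist potency where compounds increase beta-arrestin recruitment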
[24] = microbe, parasite or virus in culture; type: functional; details: Mycobacterium tuberculosis

T1 sequence (P65502 whole entry): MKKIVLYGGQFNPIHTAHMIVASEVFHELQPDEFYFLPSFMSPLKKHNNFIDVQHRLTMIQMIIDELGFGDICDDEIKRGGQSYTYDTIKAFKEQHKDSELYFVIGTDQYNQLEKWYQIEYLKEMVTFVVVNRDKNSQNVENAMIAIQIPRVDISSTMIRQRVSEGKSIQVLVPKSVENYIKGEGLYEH

COC(=O)C1CCN(C(=O)c2cc(-c3ccco3)nc3ccccc23)CC1
IC50 [1]: 18.8 µM (active)
IC50 [2]: 44.6 µM (active)
EC50 (Kallikrein-7): > 69.5 µM (inactive)
IC50 (Albumin): > 94.1 µM (inactive)
IC50 [3]: 7.31 µM (active)

C=C1CC(Cn2cc(Br)c(=O)[nH]c2=O)(c2ccc(-c3ccccc3)cc2)OC1=O (stereo not given)
IC50 (Beta-galactosidase): > 66.6 µM (inactive)
IC50 [4]: 2.2 µM (active)
EC50 (HEK293 [5]): > 59.7 µM (inactive)
AC50 [6]: 4.16 µM (active)
IC50 (Beta Lactamase): 12.2 µM (inactive)
AC50 [7]: 55.6 µM (active)
AC50 (Paired box protein Pax-8): 6.49 µM (active)
AC50 [8]: 13.6 µM (active)
EC50 (HEK293 [9]): > 59.7 µM (inactive)
AC50 [10]: 2.67 µM (active)

CCN(CC)CCn1c2ccccc2c2nc3ccccc3nc21
EC50 [11]: > 91.1 µM (inactive)
AC50 [12]: 64 µM (active)
EC50 (H4): 29.6 µM (active)
AC50 [13]: 7.12 µM (active)
EC50 [14]: 10.1 µM (inactive)
EC50 [15]: 15.1 µM (active)
EC50 [16]: 31.8 µM (active)
AC50 [17]: 3.27 µM (active)

COC(=O)c1cc(=O)n(-c2ccc(F)cc2)/c(=N/c2ccc(F)cc2)s1
AC50 [18]: 8.18 µM (active)
IC50 [19]: 4.1 µM (active)
CC50 [20]: 12.9 µM (active)
CC50 [21]: 24.1 µM (active)
CC50 [22]: 21.5 µM (active)
EC50 [23]: 11.1 µM (active)
CC50 [24]: 13.9 µM (active)
